ChEMBL document CHEMBL3885881, “DrugMatrix”

Species on record: Rattus norvegicus
Test: DrugMatrix - Regimen: Daily Repeat
Assay type: toxicity, organism-based, Sprague-Dawley
Parameters: regimen Daily Repeat, gender Male, age 6-8 weeks
Details: in vivo, po, route oral GAVAGE, vehicle .5 % CMC; for ABSOLUTE BASOPHIL / ABSOLUTE EOSINOPHIL / ABSOLUTE LYMPHOCYTE / ABSOLUTE MONOCYTE / ABSOLUTE SEGMENTED NEUTROPHIL / BASOPHIL / EOSINOPHIL / ERYTHROCYTE COUNT / HEMATOCRIT / HEMOGLOBIN / LEUKOCYTE COUNT / LYMPHOCYTE / MEAN CORPUSCULAR HEMOGLOBIN / MEAN CORPUSCULAR HEMOGLOBIN CONCENTRATION / MEAN CORPUSCULAR VOLUME / MONOCYTE / NEUTROPHIL / NUCLEATED RED BLOOD CELLS / PLATELET COUNT: tissue Blood; for ALANINE AMINOTRANSFERASE / ALBUMIN / ALKALINE PHOSPHATASE / ASPARTATE AMINOTRANSFERASE / BLOOD UREA NITROGEN / CARBON DIOXIDE / CHLORIDE / CHOLESTEROL / CREATINE PHOSPHOKINASE / CREATININE / GLUCOSE / LACTATE DEHYDROGENASE / LIPASE / PHOSPHORUS / POTASSIUM / SODIUM / TOTAL BILIRUBIN / TOTAL PROTEIN / URIC ACID: tissue Plasma
[1] = 50 mg/kg, 72 h, dose level Low, time 3 day
[2] = 50 mg/kg, 120 h, dose level Low, time 5 day
[3] = 1500 mg/kg, 72 h, dose level High, time 3 day
[4] = 1500 mg/kg, 120 h, dose level High, time 5 day

CC[C@H]1OC(=O)[C@H](C)[C@@H](O[C@H]2C[C@@](C)(OC)[C@@H](O)[C@H](C)O2)[C@H](C)[C@@H](O[C@@H]2O[C@H](C)C[C@H](N(C)C)[C@H]2O)[C@](C)(O)C[C@@H](C)C(=O)[C@H](C)[C@@H](O)[C@]1(C)O [ERYTHROMYCIN]
ABSOLUTE BASOPHIL [1]: 0 CELLS/uL
ABSOLUTE EOSINOPHIL [1]: 38.33 CELLS/uL
ABSOLUTE LYMPHOCYTE [1]: 15941.33 CELLS/uL
ABSOLUTE MONOCYTE [1]: 389.67 CELLS/uL
ABSOLUTE SEGMENTED NEUTROPHIL [1]: 1297.33 CELLS/uL
BASOPHIL [1]: 0%
EOSINOPHIL [1]: 0.33%
ERYTHROCYTE COUNT [1]: 5.45 x10E6/uL
HEMATOCRIT [1]: 34.13%
HEMOGLOBIN [1]: 13.53 G/DL
LEUKOCYTE COUNT [1]: 17.67 x10E3/uL
LYMPHOCYTE [1]: 89.67%
MEAN CORPUSCULAR HEMOGLOBIN [1]: 24.9 pg
MEAN CORPUSCULAR HEMOGLOBIN CONCENTRATION [1]: 39.67 G/DL
MEAN CORPUSCULAR VOLUME [1]: 62.7 fL
MONOCYTE [1]: 2%
NEUTROPHIL [1]: 8%
NUCLEATED RED BLOOD CELLS [1]: 0 /100WBC
PLATELET COUNT [1]: 1119.67 x10E3/uL
ALANINE AMINOTRANSFERASE [1]: 49.33 u/L
ALBUMIN [1]: 4.3 G/DL
ALKALINE PHOSPHATASE [1]: 366 u/L
ASPARTATE AMINOTRANSFERASE [1]: 81 u/L
BLOOD UREA NITROGEN [1]: 14.67 mg/dL
CARBON DIOXIDE [1]: 28.33 mmol/L
CHLORIDE [1]: 99.33 MEQ/L
CHOLESTEROL [1]: 80 mg/dL
CREATINE PHOSPHOKINASE [1]: 238.67 u/L
CREATININE [1]: 0.19 mg/dL
GLUCOSE [1]: 154 mg/dL
LACTATE DEHYDROGENASE [1]: 152.67 u/L
LIPASE [1]: 9 u/L
PHOSPHORUS [1]: 12 mg/dL
POTASSIUM [1]: 6.83 MEQ/L
SODIUM [1]: 143.9 MEQ/L
TOTAL BILIRUBIN [1]: 0.27 mg/dL
TOTAL PROTEIN [1]: 6 G/DL
URIC ACID [1]: 1.57 mg/dL
ABSOLUTE BASOPHIL [2]: 0 CELLS/uL
ABSOLUTE EOSINOPHIL [2]: 0 CELLS/uL
ABSOLUTE LYMPHOCYTE [2]: 13393.67 CELLS/uL
ABSOLUTE MONOCYTE [2]: 52.33 CELLS/uL
ABSOLUTE SEGMENTED NEUTROPHIL [2]: 520.67 CELLS/uL
BASOPHIL [2]: 0%
EOSINOPHIL [2]: 0%
ERYTHROCYTE COUNT [2]: 4.88 x10E6/uL
HEMATOCRIT [2]: 31.9%
HEMOGLOBIN [2]: 12.4 G/DL
LEUKOCYTE COUNT [2]: 13.97 x10E3/uL
LYMPHOCYTE [2]: 96%
MEAN CORPUSCULAR HEMOGLOBIN [2]: 25.47 pg
MEAN CORPUSCULAR HEMOGLOBIN CONCENTRATION [2]: 38.87 G/DL
MEAN CORPUSCULAR VOLUME [2]: 65.47 fL
MONOCYTE [2]: 0.33%
NEUTROPHIL [2]: 3.67%
NUCLEATED RED BLOOD CELLS [2]: 1 /100WBC
PLATELET COUNT [2]: 1227.33 x10E3/uL
ALANINE AMINOTRANSFERASE [2]: 45 u/L
ALBUMIN [2]: 4.23 G/DL
ALKALINE PHOSPHATASE [2]: 454.67 u/L
ASPARTATE AMINOTRANSFERASE [2]: 86.33 u/L
BLOOD UREA NITROGEN [2]: 15.33 mg/dL
CARBON DIOXIDE [2]: 25.67 mmol/L
CHLORIDE [2]: 104 MEQ/L
CHOLESTEROL [2]: 39 mg/dL
CREATINE PHOSPHOKINASE [2]: 315.67 u/L
CREATININE [2]: 0.19 mg/dL
GLUCOSE [2]: 170 mg/dL
LACTATE DEHYDROGENASE [2]: 199 u/L
LIPASE [2]: 7.67 u/L
PHOSPHORUS [2]: 10.83 mg/dL
POTASSIUM [2]: 6.66 MEQ/L
SODIUM [2]: 143.43 MEQ/L
TOTAL BILIRUBIN [2]: 0.27 mg/dL
TOTAL PROTEIN [2]: 6.13 G/DL
URIC ACID [2]: 1.5 mg/dL
ABSOLUTE BASOPHIL [3]: 0 CELLS/uL
ABSOLUTE EOSINOPHIL [3]: 0 CELLS/uL
ABSOLUTE LYMPHOCYTE [3]: 15179 CELLS/uL
ABSOLUTE MONOCYTE [3]: 91.33 CELLS/uL
ABSOLUTE SEGMENTED NEUTROPHIL [3]: 1229.67 CELLS/uL
BASOPHIL [3]: 0%
EOSINOPHIL [3]: 0%
ERYTHROCYTE COUNT [3]: 6.59 x10E6/uL
HEMATOCRIT [3]: 42.83%
HEMOGLOBIN [3]: 16.43 G/DL
LEUKOCYTE COUNT [3]: 16.5 x10E3/uL
LYMPHOCYTE [3]: 91%
MEAN CORPUSCULAR HEMOGLOBIN [3]: 24.97 pg
MEAN CORPUSCULAR HEMOGLOBIN CONCENTRATION [3]: 38.43 G/DL
MEAN CORPUSCULAR VOLUME [3]: 64.9 fL
MONOCYTE [3]: 0.67%
NEUTROPHIL [3]: 8.33%
NUCLEATED RED BLOOD CELLS [3]: 0 /100WBC
PLATELET COUNT [3]: 1070 x10E3/uL
ALANINE AMINOTRANSFERASE [3]: 65.33 u/L
ALBUMIN [3]: 4.03 G/DL
ALKALINE PHOSPHATASE [3]: 390 u/L
ASPARTATE AMINOTRANSFERASE [3]: 86.33 u/L
BLOOD UREA NITROGEN [3]: 9.33 mg/dL
CARBON DIOXIDE [3]: 34 mmol/L
CHLORIDE [3]: 100 MEQ/L
CHOLESTEROL [3]: 106.33 mg/dL
CREATINE PHOSPHOKINASE [3]: 328 u/L
CREATININE [3]: 0.16 mg/dL
GLUCOSE [3]: 137.67 mg/dL
LACTATE DEHYDROGENASE [3]: 131 u/L
LIPASE [3]: 9 u/L
PHOSPHORUS [3]: 12.3 mg/dL
POTASSIUM [3]: 6.72 MEQ/L
SODIUM [3]: 144.47 MEQ/L
TOTAL BILIRUBIN [3]: 0.1 mg/dL
TOTAL PROTEIN [3]: 6.17 G/DL
URIC ACID [3]: 2.13 mg/dL
ABSOLUTE BASOPHIL [4]: 0 CELLS/uL
ABSOLUTE EOSINOPHIL [4]: 0 CELLS/uL
ABSOLUTE LYMPHOCYTE [4]: 14587.33 CELLS/uL
ABSOLUTE MONOCYTE [4]: 796.67 CELLS/uL
ABSOLUTE SEGMENTED NEUTROPHIL [4]: 1949.33 CELLS/uL
BASOPHIL [4]: 0%
EOSINOPHIL [4]: 0%
ERYTHROCYTE COUNT [4]: 6.53 x10E6/uL
HEMATOCRIT [4]: 39.67%
HEMOGLOBIN [4]: 15.9 G/DL
LEUKOCYTE COUNT [4]: 17.33 x10E3/uL
LYMPHOCYTE [4]: 84.67%
MEAN CORPUSCULAR HEMOGLOBIN [4]: 24.4 pg
MEAN CORPUSCULAR HEMOGLOBIN CONCENTRATION [4]: 40.13 G/DL
MEAN CORPUSCULAR VOLUME [4]: 60.83 fL
MONOCYTE [4]: 4.33%
NEUTROPHIL [4]: 11%
NUCLEATED RED BLOOD CELLS [4]: 0 /100WBC
PLATELET COUNT [4]: 1382.33 x10E3/uL
ALANINE AMINOTRANSFERASE [4]: 67 u/L
ALBUMIN [4]: 3.7 G/DL
ALKALINE PHOSPHATASE [4]: 311.67 u/L
ASPARTATE AMINOTRANSFERASE [4]: 107.33 u/L
BLOOD UREA NITROGEN [4]: 13.67 mg/dL
CARBON DIOXIDE [4]: 29 mmol/L
CHLORIDE [4]: 100 MEQ/L
CHOLESTEROL [4]: 107.67 mg/dL
CREATINE PHOSPHOKINASE [4]: 532.67 u/L
CREATININE [4]: 0.21 mg/dL
GLUCOSE [4]: 130.33 mg/dL
LACTATE DEHYDROGENASE [4]: 259.67 u/L
LIPASE [4]: 9.33 u/L
PHOSPHORUS [4]: 9.97 mg/dL
POTASSIUM [4]: 9.14 MEQ/L
SODIUM [4]: 141.8 MEQ/L
TOTAL BILIRUBIN [4]: 0.1 mg/dL
TOTAL PROTEIN [4]: 6.13 G/DL
URIC ACID [4]: 1.27 mg/dL
